# In patent US7423159B2, “Agent for preventing or treating neuropathy” (Takeda Pharmaceutical Company Limited, priority 2002, dated 2008):
row,Structure (SMILES),melting point
1,CCOP(=O)(Cc1ccc(NC(=O)/C=C/c2cnn(C)c2)cc1)OCC,201 to 202 °C
2,CCOP(=O)(Cc1ccc(NC(=O)/C=C\c2cnn(C)c2-c2ccc(OC)cc2)cc1)OCC,187 to 188 °C
3,CCOP(=O)(Cc1ccc(NC(=O)/C=C/c2c(C)nn(C)c2-c2ccc(F)cc2)cc1)OCC,159 to 160 °C
4,CCOP(=O)(Cc1ccc(NC(=O)/C=C/c2c(-c3ccc(F)cc3)cnn2C)cc1)OCC,138 to 139 °C
5,"Cn1ncc(/C=C/C(=O)Nc2ccc(Cc3nn(C)c(=O)o3)cc2)c1-c1ccc(F)cc1 [Example 119, (2E)-3-[5-(4-Fluorophenyl)-1-methyl-1H-pyrazol-4-yl]-N-{4-[(4-methyl-5-oxo-4,5-dihydro-1,3,4-oxadiazol-2-yl)methyl]phenyl}acrylamide]",200 to 201 °C
6,COP(=O)(Cc1ccc(NC(=O)/C=C/c2cncn2-c2ccc(F)cc2)cc1)OC,108 to 109 °C
7,"Cn1ncc(/C=C/C(=O)Nc2ccc(Cc3nc4ccccc4[nH]3)cc2)c1-c1ccc(F)cc1 [Example 108, (2E)-N-[4-(1H-Benzimidazol-2-ylmethyl)phenyl]-3-[5-(4-fluorophenyl)-1-methyl-1H-pyrazol-4-yl]acrylamide]",> 300 °C
8,CCOP(=O)(Cc1ccc(NC(=O)/C=C/c2nncn2-c2ccc(F)cc2)cc1)OCC,217 to 218 °C
9,CCOP(=O)(Cc1ccc(NC(=O)/C=C/c2cnn(C)c2-c2cccnc2)cc1)OCC,211 to 214 °C

# More lines, now with the values ahead:
row,melting point,Structure (SMILES)
1,265 to 266 °C,"Cn1ncc(/C=C/C(=O)Nc2ccc3c(c2)oc(=O)n3C)c1-c1ccc(F)cc1 [Example 122, (2E)-3-[5-(4-Fluorophenyl)-1-methyl-1H-pyrazol-4-yl]-N-(3-methyl-2-oxo-2,3-dihydro-1,3-benzoxazol-6-yl)acrylamide]"
2,252 to 253 °C,"Cn1ncc(/C=C/C(=O)Nc2ccc(Cn3ccnn3)cc2)c1-c1ccc(F)cc1 [Example 194, (2E)-3-[5-(4-Fluorophenyl)-1-methyl-1H-pyrazol-4-yl]-N-[4-(1H-1,2,3-triazol-1-ylmethyl)phenyl]acrylamide]"
3,237 to 238 °C,"CCc1nccn1Cc1ccc(NC(=O)/C=C/c2cnn(C)c2-c2ccc(F)cc2)cc1 [Example 191, (2E)-N-{4-[(2-Ethyl-1H-imidazol-1-yl)methyl]phenyl}-3-[5-(4-fluorophenyl)-1-methyl-1H-pyrazol-4-yl]acrylamide]"
4,201 to 202 °C,"Cn1ncc(/C=C/C(=O)Nc2ccc(CCc3nccs3)cc2)c1-c1ccc(F)cc1 [Example 130, (2E)-3-[5-(4-Fluorophenyl)-1-methyl-1H-pyrazol-4-yl]-N-(4-[2-(1,3-thiazol-2-yl)ethyl]phenyl}acrylamide]"
5,119 to 120 °C,"Cn1ncc(/C=C/C(=O)Nc2ccccc2CO)c1-c1ccc(F)cc1 [Example 184, (2E)-3-[5-(4-Fluorophenyl)-1-methyl-1H-pyrazol-4-yl]-N-[2-(hydroxymethyl)phenyl]acrylamide]"
6,117 to 118 °C,"Cn1ncc(/C=C/C(=O)Nc2ccc(CO)cc2)c1-c1ccc(F)cc1 [Example 153, (2E)-3-[5-(4-Fluorophenyl)-1-methyl-1H-pyrazol-4-yl]-N-[4-(hydroxymethyl)phenyl]acrylamide]"
7,198 to 200 °C,"Cn1ncc(/C=C/C(=O)Nc2ccc(CCO)cc2)c1-c1ccc(F)cc1 [Example 167, (2E)-3-[5-(4-Fluorophenyl)-1-methyl-1H-pyrazol-4-yl]-N-[4-(2-hydroxyethyl)phenyl]acrylamide]"
8,249 to 250 °C,"Cn1ncc(/C=C/C(=O)Nc2ccc(CN3C(=O)CNC3=O)cc2)c1-c1ccc(F)cc1 [Example 157, (2E)-N-{4-[(2,5-Dioxo-1-imidazolidinyl)methyl]phenyl}-3-[5-(4-fluorophenyl)-1-methyl-1H-pyrazol-4-yl]acrylamide]"
